# Patent US20100021940A1, “Method for Determining the Activity of a Protease in a Sample” (ASTRAZENECA AB, priority 2006, published 2010)
# “And” between values parts separate entries of the source, which are not always exact repeats. Equal entries are not always repeated.
# Tests used:
# [1] = test system: MMP9; test: MMP9 activity in whole blood via 4-nitroaniline in plasma after zymosan stimulation (LC-MS); format: biochemical, human; settings: for 4-nitroaniline concentration, Mean: group mean; for 4-nitroaniline concentration: individual subjects, substrate 10 μM in plasma, 37° C., 60 min
# Description: Samples of heparinised whole blood (1 mL) were stimulated with Zymosan (0, 50, 300, 600, 900 and 1200 μg/mL), vortexed or and incubated at 37° C. for 15 minutes. Plasma was collected after centrifugation, mixed with the substrate (10 μM) and incubated at 37° C. for 60 minutes. Methanol (300 μL), with (^13C)6-4-nitroaniline (1 μM) as internal standard, was added to a 100 μL aliquot of the above mixture and centrifuged to remove precipitated proteins. The supernatant (100 μL) was diluted with water (100 μL) and the extracts was injected directly onto a HPLC column.
# Thaw, as required, pooled control human plasma, quality control and test samples. Add methyl 1-acetyl-L-prolyl-L-leucylglycyl-α-R-(4-nitrophenylamino)-glycyl-L-leucyl-β-alaninate (2 μL, solution D) to test plasma sample (200 μL) in 2 mL screw cap microtubes and mix on a vortex mixer.
# Incubate tubes for 60 minutes at 37° C. in a shaking water bath. Prepare the calibration samples in plasma as detailed in Table 1 during the 60 minute incubation of test samples in step 3. Mix the samples on a vortex mixer.
# Manually dispense aliquots (100 μL) of each plasma sample into separate wells of a 96 deep-well 2 mL plate using an appropriate pipette. (Note: start pipetting calibration, quality control and blank samples approximately 10 minutes before the test samples have finished their incubation in step 3). Dispense internal standard in methanol (300 μL) into each well using the Tecan. Cover the plate with polystyrene cover. Centrifuge at 3000 rpm for 5 minutes at room temperature.
# Transfer an aliquot (100 μL) of the sample supernatant into separate wells of a 96 deep-well 2 mL plate using the Tecan. Mix water (100 μL) with each sample in the wells of a 96 deep-well polypropylene plate using the Tecan. Cover plate with pre-spilt 96 well seal.
# Analyse 10 μL aliquots by LC/MS.
# Whole blood samples were stimulated with varying concentrations of zymosan (0, 50, 300, 600, 900 and 1200 μg/mL). Plasma sample obtained from the stimulated whole blood samples were mixed with the substrate methyl 1-acetyl-L-prolyl-L-leucylglycyl-α-R-(4-nitrophenylamino)-glycyl-L-leucyl-β-alaninate at a plasma concentration of 10 μM and the samples were then incubated at 37° C. for 60 minutes. Aliquots (100 μL) of the human plasma were mixed with methanol (300 μL) containing [^13C]6-4-nitroaniline as an internal standard to precipitate the proteins and the sample was centrifuged and supernatants (100 μL) were mixed with water (100 μL). The extracts 10 μL were injected directly onto a Phenomenex Luna phenyl-hexyl column (50×2.0 mm, 5 μm) and the compounds eluted with a gradient mobile phase consisting of 0.01% ammonia/methanol. 4-nitroaniline was resolved from endogenous plasma constituents and the HPLC effluent was directed into the mass spectrometer via a heated nebuliser interface in negative mode. 4-nitroaniline and [^13C]6-4-nitroaniline were detected using single ion monitoring of the [M-H]^− ions at the mass to charge ratio of m/z 137 and 143 respectively. The method is described above.
# The method is validated over the range 0.0500 to 10.0 μM for 4-nitroaniline based on the analysis of a 100 μL plasma sample. Quality control samples at concentrations of 0.100, 2.00 and 8.00 μM 4-nitroaniline were included to determine the acceptability of each analysis batch. The limit of quantification (LOQ) of the method is 0.0500 μM 4-nitroaniline for a 100 μL aliquot of plasma.
# [2] = test system: MMPs; test: Cleavage of separated diastereomers by MMPs to liberate the reporter; format: biochemical
# [3] = test system: MMP9; test: Activity of purified MMP on substrate (reporter release); format: biochemical, human
# Description: In order to confirm the specificity of the substrates for various MMPs, standard enzymatic assays were adapted to monitor the release of reporter. The reporter was either analysed by a LC-MS method as described in Example 3a, or by a LC-UV method as described in Example 4. […] The enzyme can be used to monitor activity of substrates as follows: […]
# [4] = test system: MMP19; test: as above; format: biochemical, human; settings: 30 μM substrate; MMP Conc. 19 nM; AZL0095
# Description: In order to confirm the specificity of the substrates for various MMPs, standard enzymatic assays were adapted to monitor the release of reporter. The reporter was either analysed by a LC-MS method as described in Example 3a, or by a LC-UV method as described in Example 4.
# Recombinant human MMP19 catalytic domain may be expressed and purified as described by Parkar A. A. et al, (2000), Protein Expression and Purification, 20:152. The purified enzyme can be used to monitor activity of substrates as follows: MMP19 (40 ng/ml […]) in assay buffer (0.1M “Tris-HCl” (trade mark) buffer, pH 7.3 containing 0.1M NaCl, 20 mM CaCl2, 0.020 mM ZnCl and 0.05% (w/v) “Brij 35” (trade mark) detergent) in the presence or absence of inhibitors. Activity is determined by measuring the release of reporter 4-nitroaniline by the using the method in Example 3a.
# [5] = healthy volunteers, visit 3, zymosan 0 μg
# [6] = healthy volunteers, visit 3, zymosan 50 μg
# [7] = healthy volunteers, visit 3, zymosan 300 μg
# [8] = healthy volunteers, visit 3, zymosan 600 μg
# [9] = healthy volunteers, visit 3, zymosan 900 μg
# [10] = healthy volunteers, visit 3, zymosan 1200 μg
# [11] = healthy volunteers, visit 4, zymosan 0 μg
# [12] = healthy volunteers, visit 4, zymosan 50 μg
# [13] = healthy volunteers, visit 4, zymosan 300 μg
# [14] = healthy volunteers, visit 4, zymosan 600 μg
# [15] = healthy volunteers, visit 4, zymosan 900 μg
# [16] = healthy volunteers, visit 4, zymosan 1200 μg
smiles,measurement,setting,value
"COC(=O)CCNC(=O)[C@H](CC(C)C)NC(=O)[C@@H](NC(=O)CNC(=O)[C@H](CC(C)C)NC(=O)[C@@H]1CCCN1C(C)=O)Nc1ccc([N+](=O)[O-])cc1 [Example 1.1, Methyl 1-acetyl-L-prolyl-L-leucylglycyl-α-R-(4-nitrophenylamino)-glycyl-L-leucyl-β-alaninate]","4-nitroaniline concentration, Mean","[1]; COPD patients, visit 3, zymosan 0 μg",0.128 µM
same,"4-nitroaniline concentration, Mean","[1]; COPD patients, visit 3, zymosan 50 μg",1.58 µM
same,"4-nitroaniline concentration, Mean","[1]; COPD patients, visit 3, zymosan 300 μg",3.56 µM
same,"4-nitroaniline concentration, Mean","[1]; COPD patients, visit 3, zymosan 600 μg",4.33 µM
same,"4-nitroaniline concentration, Mean","[1]; COPD patients, visit 3, zymosan 900 μg",4.77 µM
same,"4-nitroaniline concentration, Mean","[1]; COPD patients, visit 3, zymosan 1200 μg",4.68 µM
same,"4-nitroaniline concentration, Mean","[1]; COPD patients, visit 4, zymosan 0 μg",0.141 µM
same,"4-nitroaniline concentration, Mean","[1]; COPD patients, visit 4, zymosan 50 μg",1.51 µM
same,"4-nitroaniline concentration, Mean","[1]; COPD patients, visit 4, zymosan 300 μg",3.31 µM
same,"4-nitroaniline concentration, Mean","[1]; COPD patients, visit 4, zymosan 600 μg",4.03 µM
same,"4-nitroaniline concentration, Mean","[1]; COPD patients, visit 4, zymosan 900 μg",4.41 µM
same,"4-nitroaniline concentration, Mean","[1]; COPD patients, visit 4, zymosan 1200 μg",4.54 µM
same,"4-nitroaniline concentration, Mean",[1]; [5],0.121 µM
same,4-nitroaniline concentration,[1]; [5],0.145 μM (2×) and 0.132 μM and 0.126 μM and 0.0917 μM and 0.124 μM and 0.104 μM and 0.0963 μM and 0.118 μM and 0.123 μM
same,"4-nitroaniline concentration, Mean",[1]; [6],1.22 µM
same,4-nitroaniline concentration,[1]; [6],1.13 μM (2×) and 1.82 μM and 2.10 μM and 1.52 μM and 0.988 μM and 0.836 μM and 0.878 μM and 0.646 μM and 1.16 μM
same,"4-nitroaniline concentration, Mean",[1]; [7],2.82 µM
same,4-nitroaniline concentration,[1]; [7],2.48 µM and 3.68 µM and 2.65 µM and 4.32 µM and 3.63 µM and 2.82 µM and 2.31 µM and 2.42 µM and 1.56 µM and 2.28 µM
same,"4-nitroaniline concentration, Mean",[1]; [8],3.36 µM
same,4-nitroaniline concentration,[1]; [8],3.00 µM and 4.26 µM and 2.98 µM and 4.39 µM and 4.23 µM and 3.90 µM and 3.08 µM and 2.99 µM and 1.84 µM and 2.95 µM
same,"4-nitroaniline concentration, Mean",[1]; [9],3.52 µM
same,4-nitroaniline concentration,[1]; [9],3.05 µM and 4.50 µM and 3.14 µM and 4.38 µM and 4.24 µM and 3.98 µM and 3.45 µM and 3.35 µM and 2.07 µM and 2.99 µM
same,"4-nitroaniline concentration, Mean",[1]; [10],3.59 µM
same,4-nitroaniline concentration,[1]; [10],3.07 µM and 4.53 µM and 2.99 µM and 4.28 µM and 4.45 µM and 4.41 µM and 3.53 µM and 3.50 µM and 2.14 µM and 3.02 µM
same,"4-nitroaniline concentration, Mean",[1]; [11],0.131 µM
same,4-nitroaniline concentration,[1]; [11],0.154 µM and 0.192 µM and 0.106 µM and 0.0977 µM and 0.130 µM and 0.199 µM and 0.0803 µM
same,"4-nitroaniline concentration, Mean",[1]; [12],0.986 µM
same,4-nitroaniline concentration,[1]; [12],1.49 µM and 2.11 µM and 0.808 µM and 0.616 µM and 0.732 µM and 0.795 µM and 0.758 µM
same,"4-nitroaniline concentration, Mean",[1]; [13],2.39 µM
same,4-nitroaniline concentration,[1]; [13],2.81 µM and 4.29 µM and 1.92 µM and 1.68 µM and 1.98 µM and 2.29 µM and 2.22 µM
same,"4-nitroaniline concentration, Mean",[1]; [14],2.84 µM
same,4-nitroaniline concentration,[1]; [14],3.17 µM and 4.36 µM and 2.39 µM and 2.12 µM and 2.41 µM and 3.36 µM
same,"4-nitroaniline concentration, Mean",[1]; [15],3.26 µM
same,4-nitroaniline concentration,[1]; [15],3.27 μM and 5.53 μM and 2.69 μM and 2.46 μM and 3.03 μM and 3.48 μM (2×)
same,"4-nitroaniline concentration, Mean",[1]; [16],3.39 µM
same,4-nitroaniline concentration,[1]; [16],3.32 µM and 5.28 µM and 2.84 µM and 2.85 µM and 3.15 µM and 4.00 µM
same,"4-nitroaniline concentration, Mean","[1]; smokers, visit 3, zymosan 0 μg",0.149 µM
same,"4-nitroaniline concentration, Mean","[1]; smokers, visit 3, zymosan 50 μg",1.45 µM
same,"4-nitroaniline concentration, Mean","[1]; smokers, visit 3, zymosan 300 μg",3.35 µM
same,"4-nitroaniline concentration, Mean","[1]; smokers, visit 3, zymosan 600 μg",4.10 µM
same,"4-nitroaniline concentration, Mean","[1]; smokers, visit 3, zymosan 900 μg",4.45 µM
same,"4-nitroaniline concentration, Mean","[1]; smokers, visit 3, zymosan 1200 μg",4.47 µM
same,"4-nitroaniline concentration, Mean","[1]; smokers, visit 4, zymosan 0 μg",0.142 µM
same,"4-nitroaniline concentration, Mean","[1]; smokers, visit 4, zymosan 50 μg",1.66 µM
same,"4-nitroaniline concentration, Mean","[1]; smokers, visit 4, zymosan 300 μg",3.32 µM
same,"4-nitroaniline concentration, Mean","[1]; smokers, visit 4, zymosan 600 μg",3.76 µM
same,"4-nitroaniline concentration, Mean","[1]; smokers, visit 4, zymosan 900 μg",4.19 µM
same,"4-nitroaniline concentration, Mean","[1]; smokers, visit 4, zymosan 1200 μg",4.41 µM
same,Cleavage by MMPs to liberate the reporter,[2],rapidly cleaved by MMPs
same,Activity,"[3]; 30 μM substrate, MMP Conc. 0.27 nM, AZL0064",7.4 units/s
same,Activity of selected substrates with MMPs,"[3]; Table 1b, MMP9",62.9 units/s (molRXH/molEnz * s)
same,Activity,[4],0.13 units/s
